According to publication PMC7939381, “MMP activation–associated aminopeptidase N reveals a bivalent 14-3-3 binding motif” (The Journal of Biological Chemistry, 2021):
Where a SMILES comes first, the peptide text is derived from it. [ ]: non-standard residue; d: D form. pT = C[C@@H](OP(=O)(O)O)[C@H](N)C(=O)O; pS = N[C@@H](COP(=O)(O)O)C(=O)O

Key:
14-3-3η [1] = target: T1, 14-3-3η (Homo sapiens, UniProt Q04917); experiment: direct binding FP assay, 14-3-3η
T1 construct: N-terminally His6-tagged 14-3-3 full-length proteins were expressed with heterologous bacterial expression; made in house
T1 sequence (Q04917 1-246): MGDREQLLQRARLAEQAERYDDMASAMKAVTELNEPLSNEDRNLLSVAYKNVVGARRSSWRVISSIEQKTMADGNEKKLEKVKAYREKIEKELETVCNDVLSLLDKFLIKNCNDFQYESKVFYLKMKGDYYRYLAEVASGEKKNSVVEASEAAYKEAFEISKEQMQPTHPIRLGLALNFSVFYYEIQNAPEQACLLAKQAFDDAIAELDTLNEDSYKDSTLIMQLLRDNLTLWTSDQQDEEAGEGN
Experimental: (§1) For the FP assay, the 14-3-3 proteins were diluted to a protein-specific start concentration in FP buffer (10 mM HEPES, pH 7.4, 150 mM NaCl, 2 mM DTT, 0.01% Tween 20). DMSO stocks of peptides were diluted in FP buffer to a concentration of 30 nM. For the assay, 10 μl of FP buffer were pipetted in 20 wells of a 384-well Corning black round bottom plate. A dilution series with 10 μl of protein solution was performed, and 5 μl of peptide solution was added to each well for a final volume of 15 μl. The plate was incubated for 60 min at room temperature. Measurement was performed at 25 °C in a Tecan Spark20M plate reader (λex = 470 nm, λem = 525 nm). Data analysis was performed with GraphPad Prism (version 5.03), and KD values were determined via a nonlinear regression fit of dose-response curves with variable slope (four parameters).

14-3-3η [2] = target: T1, 14-3-3η; experiment: isothermal titration calorimetry (ITC) with 14-3-3η; format: binding; details: T = 298 K; peptide per 14-3-3 protomer; mean ± S.D., n = 3
Experimental: The ITC experiments were performed on an automated MicroCal iTC200 (Malvern Panalytical). To prepare 14-3-3 proteins for ITC measurements, a buffer exchange to ITC buffer (50 mM HEPES, pH 7.4, 250 mM NaCl, 20 mM MgCl2) was performed on a Superdex 75 10/300 GL column (ÄKTA Pure FPLC system, GE Healthcare). For peptides 1, 7, and 17, a 500 μM solution of protein was titrated to a 50 μM solution of peptide in 18 steps (2-μl volume in 4 s, 180-s spacing) at 25 °C. For peptide 11, a 250 μM solution of protein was titrated to a 12.5 μM solution of peptide with the settings mentioned before. The reference power was set to […], and the stirring speed was set to 750 rpm. Analysis was performed using MicroCal ITC-ORIGIN analysis software.

14-3-3σ = target: T2, 14-3-3σ (Homo sapiens, UniProt P31947); experiment: direct binding fluorescence polarization (FP) assay, 14-3-3σ; details: FITC-labeled peptide; Fig. 2A
T2 construct: N-terminally His6-tagged 14-3-3 full-length proteins were expressed with heterologous bacterial expression; made in house
T2 sequence (P31947 1-248): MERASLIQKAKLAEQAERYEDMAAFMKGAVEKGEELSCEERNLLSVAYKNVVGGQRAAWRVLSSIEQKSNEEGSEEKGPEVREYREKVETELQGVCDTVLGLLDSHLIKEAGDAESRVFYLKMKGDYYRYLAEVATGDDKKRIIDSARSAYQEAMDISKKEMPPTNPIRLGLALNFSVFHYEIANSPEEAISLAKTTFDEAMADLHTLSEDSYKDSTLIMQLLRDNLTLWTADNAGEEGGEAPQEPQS
Experimental: as §1

His6-14-3-3β/α = experiment: pulldown of His6-14-3-3β/α from E. coli cell lysate with biotinylated peptides; format: binding, human; details: biotinylated peptide on streptavidin beads; NTA-Atto488 stained SDS-PAGE, Fig. S2B
Experimental: (§2) 14-3-3–overexpressing E. coli cell lysate was prepared by lysing E. coli cells via sonication in pulldown buffer and removing cell debris by ultracentrifugation (53,350 rcf, 45 min, 4 °C). 24 nmol of Streptavidin Sepharose High Performance beads (GE Healthcare) were equilibrated with pulldown buffer (50 mM HEPES, pH 7.4, 250 mM NaCl, 20 mM MgCl2) and incubated with 24 nmol of biotin-1, biotin-6, or no peptide for 45 min on ice. Afterward, the beads were washed three times with pulldown buffer. Subsequently, the beads were incubated for 120 min in the prepared cell lysate. After incubation, beads were washed three times with pulldown buffer and split in half either for direct SDS-PAGE or for competition analysis, respectively. For competition, beads incubated with biotin-1 were incubated with 96 nmol of acetylated peptide 1 for 60 min and washed three times with pulldown buffer. For SDS-PAGE, 6 nmol of beads were added per lane on a Tris-Tricine ([52]) gel and run for 120 min at 150 V. After electrophoresis, gel was fixated for 90 min in a solution of 50% water, 40% EtOH, and 10% acetic acid and consequently washed two times for 30 min in water. Staining of the His6-tagged proteins in the gel was performed in a 1:1000 dilution of a 1 μg/μl solution of NTA-Atto488 (Sigma–Aldrich) for 60 min. Access stain was removed by two washing steps, each 60 min, in water. […]

14-3-3β/α = target: T3, 14-3-3β/α (Homo sapiens, UniProt P31946); experiment: direct binding FP assay, 14-3-3β/α; details: FITC-labeled peptide, Fig. 2C and Fig. S1
T3 construct: N-terminally His6-tagged 14-3-3 full-length proteins were expressed with heterologous bacterial expression; made in house
T3 sequence (P31946 1-246): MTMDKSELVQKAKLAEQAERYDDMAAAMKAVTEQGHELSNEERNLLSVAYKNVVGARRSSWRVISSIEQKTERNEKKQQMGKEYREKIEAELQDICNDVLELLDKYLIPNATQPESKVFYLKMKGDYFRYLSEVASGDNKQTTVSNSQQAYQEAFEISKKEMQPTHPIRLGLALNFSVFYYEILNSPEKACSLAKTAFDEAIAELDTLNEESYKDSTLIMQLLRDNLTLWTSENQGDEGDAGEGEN
Experimental: as §1

His6-14-3-3η = experiment: pulldown of His6-14-3-3η from E. coli cell lysate with biotinylated peptides; format: binding, human; details: biotinylated peptide on streptavidin beads; NTA-Atto488 stained SDS-PAGE, Fig. 2E
Experimental: as §2

Compound	increase in overall affinity of 7 versus 11 (14-3-3η, FP) (14-3-3η [1]; pThr^63 combined with site 1, Fig. 4A and Fig. S3)	binding stoichiometry N (ITC, 14-3-3η) (14-3-3η [2])	binding toward 14-3-3σ in direct FP assay (in words) (14-3-3σ)	pulldown of His6-14-3-3β/α (in words) (His6-14-3-3β/α)	relative affinity of 14-3-3η compared with 14-3-3σ (relative affinity = 1) (14-3-3η [1]; FP assay, FITC-labeled peptide, Fig. 2C and Fig. S1)	relative affinity of 14-3-3β/α compared with 14-3-3σ (relative affinity = 1) (14-3-3β/α)	pulldown of His6-14-3-3η (in words) (His6-14-3-3η)
CC(=O)N[C@@H](CCC(=O)O)C(=O)N[C@@H](CCCCN)C(=O)N[C@@H](CC(N)=O)C(=O)N[C@@H](CCCCN)C(=O)N[C@@H](CC(N)=O)C(=O)N[C@@H](C)C(=O)N[C@@H](CC(N)=O)C(=O)N[C@@H](COP(=O)(O)O)C(=O)N[C@@H](CO)C(=O)N1CCC[C@H]1C(=O)N[C@H](C(=O)N[C@@H](C)C(=O)N[C@@H](CO)C(=O)N[C@H](C(=O)N[C@H](C(=O)N1CCC[C@H]1C(=O)N[C@@H](CO)C(=O)N[C@@H](C)C(=O)N[C@@H](CO)C(=O)N[C@@H](C)C(=O)N[C@H](C(=O)N[C@H](C(=O)N[C@@H](CC(N)=O)C(=O)N1CCC[C@H]1C(=O)N[C@@H](C)C(=O)N[C@@H](CO)C(=O)N[C@@H](C)C(=O)N[C@H](C(=O)N[C@H](C(=O)N[C@@H](CC(C)C)C(=O)N[C@@H](CC(=O)O)C(=O)N[C@@H](CCC(N)=O)C(=O)N[C@@H](CO)C(=O)N[C@@H](CCCCN)C(=O)N[C@@H](C)C(=O)N[C@@H](Cc1c[nH]c2ccccc12)C(=O)N[C@@H](CC(N)=O)C(=O)N[C@@H](CCCNC(=N)N)C(=O)O)[C@@H](C)O)[C@@H](C)OP(=O)(O)O)[C@@H](C)O)[C@@H](C)O)[C@@H](C)O)[C@@H](C)O)C(C)C [compound 11] (Ac-EKNKNAN[pS]SPVASTTPSASATTNPASA[pT]TLDQSKAWNR-OH)	~500 fold	0.58 ± 0.01	–	–	–	–	–
KNANSpSPVA [compound 6, APN 39–47 pSer^44 peptide KNANSpSPVA, negative control]	–	–	did not show any binding	–	–	–	–
CC(=O)N[C@@H](CC(N)=O)C(=O)N[C@@H](CCCCN)C(=O)N[C@@H](CC(N)=O)C(=O)N[C@@H](C)C(=O)N[C@@H](CC(N)=O)C(=O)N[C@@H](COP(=O)(O)O)C(=O)N[C@@H](CO)C(=O)N1CCC[C@H]1C(=O)N[C@H](C(=O)O)C(C)C [compound 1] (Ac-NKNAN[pS]SPV-OH)	–	1.05 ± 0.02	–	binds specifically	18.6 fold	5.7 fold	binds specifically
